Data as given in ChEMBL document CHEMBL1201862, “PubChem BioAssay data set” (2004).
Calls of active or inactive are those of the source.

Tests used:
Cytochrome P450 3A4 = Cytochrome P450 3A4 (Homo sapiens, UniProt P08684);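 further: CYP3A4 tested as one member of a cytochrome P450 panel screen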
Cytochrome P450 2C19 = Cytochrome P450 2C19 (Homo sapiens, UniProt P33261); experiment: Cytochrome panel assay with activity outcomes. Panel member name: p450-cyp2c19 Compounds with AC50 equal or less than 10 uM are considered active; type: functional; settings: read-out: AC50
Sequence of Cytochrome P450 2C19 (P33261 whole entry): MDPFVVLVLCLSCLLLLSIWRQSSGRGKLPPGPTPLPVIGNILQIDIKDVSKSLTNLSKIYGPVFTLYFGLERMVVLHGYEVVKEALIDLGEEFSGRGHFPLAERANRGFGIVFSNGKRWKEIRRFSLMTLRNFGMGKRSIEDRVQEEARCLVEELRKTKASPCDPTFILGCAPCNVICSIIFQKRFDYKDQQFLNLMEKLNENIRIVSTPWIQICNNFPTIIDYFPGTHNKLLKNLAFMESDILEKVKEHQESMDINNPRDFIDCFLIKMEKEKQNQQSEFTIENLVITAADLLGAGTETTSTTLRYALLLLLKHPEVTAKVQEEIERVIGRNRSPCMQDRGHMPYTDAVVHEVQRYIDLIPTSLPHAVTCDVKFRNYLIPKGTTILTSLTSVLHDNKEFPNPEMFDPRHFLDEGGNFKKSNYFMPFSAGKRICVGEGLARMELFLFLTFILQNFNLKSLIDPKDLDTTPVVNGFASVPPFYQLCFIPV

fMet-Leu-Phe receptor = target: T1, fMet-Leu-Phe receptor (Homo sapiens, UniProt P21462); experiment: FPR ligands, dose response (AID 519); type: functional
T1 sequence (P21462 whole entry): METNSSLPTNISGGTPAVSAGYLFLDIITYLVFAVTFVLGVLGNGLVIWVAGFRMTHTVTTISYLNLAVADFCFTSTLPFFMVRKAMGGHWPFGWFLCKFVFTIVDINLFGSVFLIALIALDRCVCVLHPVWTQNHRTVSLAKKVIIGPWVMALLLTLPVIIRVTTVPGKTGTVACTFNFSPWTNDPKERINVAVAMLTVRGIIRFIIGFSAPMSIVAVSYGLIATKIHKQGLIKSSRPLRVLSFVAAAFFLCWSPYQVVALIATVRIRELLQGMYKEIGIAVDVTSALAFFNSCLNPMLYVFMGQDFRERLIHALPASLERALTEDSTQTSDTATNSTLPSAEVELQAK

Cytochrome P450 2C9 = Cytochrome P450 2C9 (Homo sapiens, UniProt P11712)
Sequence of Cytochrome P450 2C9 (P11712 whole entry): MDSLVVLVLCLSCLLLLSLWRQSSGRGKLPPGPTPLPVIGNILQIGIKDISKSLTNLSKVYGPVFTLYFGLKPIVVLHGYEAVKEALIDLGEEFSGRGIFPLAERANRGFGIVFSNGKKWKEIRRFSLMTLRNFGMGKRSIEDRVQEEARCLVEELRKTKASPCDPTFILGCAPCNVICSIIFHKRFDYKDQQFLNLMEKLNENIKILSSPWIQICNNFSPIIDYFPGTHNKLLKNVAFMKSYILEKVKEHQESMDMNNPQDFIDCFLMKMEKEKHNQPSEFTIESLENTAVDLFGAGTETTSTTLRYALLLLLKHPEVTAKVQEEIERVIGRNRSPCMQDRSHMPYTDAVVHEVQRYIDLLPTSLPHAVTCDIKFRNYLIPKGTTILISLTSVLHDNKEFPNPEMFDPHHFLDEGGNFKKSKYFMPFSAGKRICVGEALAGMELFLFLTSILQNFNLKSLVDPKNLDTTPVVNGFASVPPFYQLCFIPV

[1] = P. falciparum late gametocyte killing, dose response, luminescence (AID 1117278); type: functional, cell-based;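 further: gametocytes exposed to compound for 24 hours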
[2] = Jurkat T cell cytotoxicity, dose response, cytotoxicity control for P. falciparum gametocyte viability project, luminescence (AID 1117277); type: functional, cell-based;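 further: potency reflects loss of cellular ATP meaning fewer viable cells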
[3] = Luminescence-based cell-based high throughput dose response assay to identify activators of the DAF-12 from the parasite S. stercoralis (ssDAF-12).; type: functional
[4] = target: T2, Oxysterols receptor LXR-beta (Homo sapiens, UniProt P55055); experiment: LXR agonists, Gal4 luciferase reporter, dose response, counter-screen for ssDAF-12 agonist project, cell-based, luminescence, HEK293, S. stercoralis campaign (AID 720737); type: functional; settings: read-out: IC50 (the source's name)
T2 sequence (P55055 whole entry): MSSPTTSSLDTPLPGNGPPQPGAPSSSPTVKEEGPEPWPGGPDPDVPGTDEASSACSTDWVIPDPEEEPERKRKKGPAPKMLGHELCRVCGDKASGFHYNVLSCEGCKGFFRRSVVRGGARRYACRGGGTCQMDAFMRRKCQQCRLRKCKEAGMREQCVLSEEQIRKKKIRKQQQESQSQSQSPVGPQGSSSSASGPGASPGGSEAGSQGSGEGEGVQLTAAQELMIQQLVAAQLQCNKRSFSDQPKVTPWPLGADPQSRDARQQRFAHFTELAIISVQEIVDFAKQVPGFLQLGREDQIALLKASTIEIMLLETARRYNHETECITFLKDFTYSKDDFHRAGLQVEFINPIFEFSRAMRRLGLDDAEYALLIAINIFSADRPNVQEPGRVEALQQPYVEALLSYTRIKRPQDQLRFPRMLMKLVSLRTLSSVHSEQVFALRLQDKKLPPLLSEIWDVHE

[5] = A Cell Based Secondary Assay To Explore Cytotoxicity of Compounds that Sensitize Mycobacterium Tuberculosis to Beta-Lactam Antibiotics.; type: functional
[6] = Artemis endonuclease inhibitor potency, dose response, biochemical, fluorescence intensity (AID 720701); type: functional;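 further: Artemis endonuclease enzyme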
[7] = control 3'UTR Renilla luciferase suppression, dose response, counter-screen for Shn3 inhibitor project, cell-based, Clone20-Shn3RL, cherry-picked (AID 624133); type: functional
[8] = Shn3 3'UTR reporter inhibitors, dose response, cell-based, Clone20 osteoblasts, firefly luciferase, cherry-picked (AID 624132); type: functional;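 further: firefly luciferase luminescence from reporter carrying the Shn3 3'UTR in osteoblasts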
[9] = target: T3, COUP transcription factor 2 (Homo sapiens, UniProt P24468); experiment: Luminescence-based cell-based high throughput dose response assay to identify inhibitors of COUP-TFII (NR2F2).; type: functional;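 further: HEK293 cells transiently cotransfected with COUP-TFII expression vector and reporter; luciferase reporter luminescence driven by COUP-TFII from the pX2-168 reporter plasmid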
T3 sequence (P24468 whole entry): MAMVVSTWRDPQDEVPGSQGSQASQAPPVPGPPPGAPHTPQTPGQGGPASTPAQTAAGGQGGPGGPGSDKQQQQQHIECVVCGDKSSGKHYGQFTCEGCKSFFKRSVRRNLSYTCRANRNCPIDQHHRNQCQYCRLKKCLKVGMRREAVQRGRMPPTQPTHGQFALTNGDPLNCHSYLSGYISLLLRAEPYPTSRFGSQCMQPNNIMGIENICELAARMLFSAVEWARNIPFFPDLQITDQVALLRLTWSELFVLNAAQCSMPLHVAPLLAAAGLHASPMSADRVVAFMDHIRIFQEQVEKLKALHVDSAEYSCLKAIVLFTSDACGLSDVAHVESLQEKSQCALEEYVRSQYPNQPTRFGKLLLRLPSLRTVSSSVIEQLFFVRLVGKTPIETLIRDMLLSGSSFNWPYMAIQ

[10] = growth suppression of beta-catenin-knockout colon cells, dose response, cell-based, HCT116, human colon tumor (AID 1045); type: functional;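 further: HCT116 colon tumor cells with beta catenin knocked out; cells exposed to compound for 60 hours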
Protein Wnt-3a = Protein Wnt-3a (Mus musculus, UniProt P27467); experiment: Wnt3a-driven reporter signaling inhibition, dose response, selectivity assay for Gli-SUFU antagonist project, Wnt-LIGHT cells, luminescence (AID 651570); type: functional; settings: read-out: IC50_Mean;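 further: Wnt-LIGHT reporter cells stimulated with conditioned medium from Wnt3a-producing cells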
Sequence of Protein Wnt-3a (P27467 whole entry): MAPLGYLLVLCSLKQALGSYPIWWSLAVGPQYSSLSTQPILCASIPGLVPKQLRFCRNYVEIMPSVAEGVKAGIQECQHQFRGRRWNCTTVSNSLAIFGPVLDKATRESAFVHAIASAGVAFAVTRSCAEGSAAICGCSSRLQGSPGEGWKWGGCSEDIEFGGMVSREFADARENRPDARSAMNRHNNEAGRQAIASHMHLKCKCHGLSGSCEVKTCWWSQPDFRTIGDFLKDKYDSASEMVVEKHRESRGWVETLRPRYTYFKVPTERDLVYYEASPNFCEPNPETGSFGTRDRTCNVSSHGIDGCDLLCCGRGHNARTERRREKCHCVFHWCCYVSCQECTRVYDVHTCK

[11] = growth suppression of PTEN-null colon cells, dose response, cell-based, HCT116 PTEN knockout (AID 1047); type: functional;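 further: HCT116 colon tumor cells with PTEN knocked out; cells exposed to compound for 60 hours before readout; potency for loss of cell viability measured by luminescence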
[12] = HepG2 cell cytotoxicity, dose response, cytotoxicity control for Shn3 inhibitor project, CellTiter-Glo, cherry-picked (AID 624134); type: functional, cell-based
[13] = target: Mitogen-activated protein kinase 10 (Homo sapiens, UniProt P53779); experiment: Dose response biochemical screening assay for inhibitors of c-Jun N-Terminal Kinase 3 (JNK3). [Related pubchem assays: 746 ]
Sequence of Mitogen-activated protein kinase 10 (P53779 whole entry): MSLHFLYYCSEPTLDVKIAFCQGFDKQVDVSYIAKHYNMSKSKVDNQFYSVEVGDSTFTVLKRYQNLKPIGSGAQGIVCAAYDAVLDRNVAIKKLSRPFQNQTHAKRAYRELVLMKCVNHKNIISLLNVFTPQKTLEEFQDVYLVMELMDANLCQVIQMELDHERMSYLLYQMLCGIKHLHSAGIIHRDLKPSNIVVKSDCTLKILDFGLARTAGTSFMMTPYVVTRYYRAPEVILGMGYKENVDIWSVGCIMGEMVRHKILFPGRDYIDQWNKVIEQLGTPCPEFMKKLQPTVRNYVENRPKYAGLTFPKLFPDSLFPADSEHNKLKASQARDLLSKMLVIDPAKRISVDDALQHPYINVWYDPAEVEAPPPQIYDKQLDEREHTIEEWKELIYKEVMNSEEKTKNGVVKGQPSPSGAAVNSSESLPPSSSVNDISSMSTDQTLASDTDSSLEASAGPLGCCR

[14] = inhibitors of PGC1a acetylation in cells, dose response, cell-based, cherry-picked samples (AID 720514); type: functional;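 further: potency may reflect raised or lowered acetylation signal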
[15] = target: T4, Rac GTPase-activating protein 1 (Homo sapiens, UniProt Q9H0H5); experiment: MgcRacGAP GTPase-activating activity inhibitors, confirmation, biochemical, ADP Hunter fluorescence, primary and confirmatory (AID 624330); type: functional
T4 sequence (Q9H0H5 whole entry): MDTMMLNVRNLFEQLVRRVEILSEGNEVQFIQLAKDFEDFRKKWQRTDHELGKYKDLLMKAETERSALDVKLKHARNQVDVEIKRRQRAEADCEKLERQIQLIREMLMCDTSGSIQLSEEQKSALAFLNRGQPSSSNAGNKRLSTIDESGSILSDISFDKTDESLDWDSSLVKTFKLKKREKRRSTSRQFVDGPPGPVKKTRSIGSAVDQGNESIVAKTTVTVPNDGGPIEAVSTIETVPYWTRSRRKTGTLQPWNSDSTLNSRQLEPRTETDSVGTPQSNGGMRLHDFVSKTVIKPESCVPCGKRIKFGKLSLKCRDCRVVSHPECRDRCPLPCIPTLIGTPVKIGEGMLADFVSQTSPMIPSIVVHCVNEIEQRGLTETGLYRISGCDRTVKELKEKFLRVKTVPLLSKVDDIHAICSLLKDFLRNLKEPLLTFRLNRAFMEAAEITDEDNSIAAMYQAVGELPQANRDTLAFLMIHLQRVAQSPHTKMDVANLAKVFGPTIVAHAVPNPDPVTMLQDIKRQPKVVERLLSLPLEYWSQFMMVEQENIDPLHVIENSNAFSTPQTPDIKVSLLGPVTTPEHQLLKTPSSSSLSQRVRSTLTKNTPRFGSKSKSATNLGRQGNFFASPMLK

[16] = HepG2 cell cytotoxicity, dose response, cytotoxicity control, plate reader, dry powder samples (AID 1159569); type: functional, cell-based;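 further: inhibitor potency with signal falling toward the positive control level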
[17] = P. falciparum Dd2 growth inhibitors, dose response, SYBR Green, cherry-picked samples (AID 1159567); type: functional, cell-based
[18] = P. falciparum ATP4 D1247Y mutant growth inhibitors, dose response, NITD609-resistant line, SYBR Green, dry powder (AID 1159571); type: functional, cell-based;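 further: parasites synchronized at ring stage by sorbitol before testing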
[19] = P. falciparum 3D7-ScDHODH growth inhibitors, dose response, SYBR Green, dry powder samples (AID 1159570); type: functional, cell-based;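 further: parasite growth measured after 72 hours of compound exposure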
[20] = P. falciparum Dd2 growth inhibitors, dose response, SYBR Green, dry powder samples (AID 1159566); type: functional, cell-based;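 further: potency for growth inhibition with lower SYBR green DNA signal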
[21] = HepG2 cell cytotoxicity, dose response, cytotoxicity control, cherry-picked samples (AID 1159577); type: functional, cell-based

Sequence of Cytochrome P450 3A4 (P08684 whole entry): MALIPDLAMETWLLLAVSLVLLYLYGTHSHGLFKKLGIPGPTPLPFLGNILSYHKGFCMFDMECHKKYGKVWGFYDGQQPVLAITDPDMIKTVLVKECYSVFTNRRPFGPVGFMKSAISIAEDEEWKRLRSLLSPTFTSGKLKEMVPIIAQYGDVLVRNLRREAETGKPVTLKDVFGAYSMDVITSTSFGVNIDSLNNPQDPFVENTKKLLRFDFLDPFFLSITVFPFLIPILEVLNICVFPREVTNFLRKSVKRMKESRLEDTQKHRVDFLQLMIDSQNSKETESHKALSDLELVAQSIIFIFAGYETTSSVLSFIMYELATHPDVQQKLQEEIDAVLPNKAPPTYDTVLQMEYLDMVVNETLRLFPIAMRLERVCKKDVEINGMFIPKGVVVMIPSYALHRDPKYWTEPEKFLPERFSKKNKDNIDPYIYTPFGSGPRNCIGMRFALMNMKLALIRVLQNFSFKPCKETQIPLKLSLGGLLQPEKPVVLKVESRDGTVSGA

Q: With `CCOc1ccccc1Oc1c(C)oc2cc(OC(=O)c3ccco3)ccc2c1=O` as the compound, how does the AC50 (Cytochrome P450 3A4) read?
A: 20 µM (inconclusive)

Q: What about the AC50 (Cytochrome P450 2C19) of the same compound?
A: 3.16 µM (inconclusive)

Q: And the Ki (fMet-Leu-Phe receptor)?
A: 20.5 µM (inactive)

Q: And the AC50 (Cytochrome P450 2C9)?
A: inconclusive

Q: What does the source list for `CC(C)CN1CCN(Cc2nc(C(C)C)cs2)CC1CCO` (stereo unspecified)?
A: IC50 [1]: > 109 µM (inactive); IC50 [2]: > 83.3 µM (inactive)

Q: Which IC50 [3] does the source give for `CCNC1=NN=C(c2c[nH]c3ccccc23)CS1` here?
A: > 67.6 µM (inactive)

Q: And the EC50 [4]?
A: > 67.6 µM (inactive)

Q: Which IC50 [1] does the source give for `N#Cc1c(N)n(-c2ccc(O)cc2)c2nc3ccccc3nc12` here?
A: > 109 µM (inactive)

Q: What about the IC50 [2] of the same compound?
A: > 83.4 µM (inactive)

Q: With `Cc1ccc(-c2cc(-c3ccccc3)no2)c(O)c1` as the compound, how does the IC50 [3] read?
A: > 67.5 µM (inactive)

Q: What about the EC50 [4] of the same compound?
A: > 67.5 µM (inactive)

Q: Which results are given for `c1ccc(-c2ccc(C3=Nn4c(Cn5nnc6ccccc65)nnc4SC3)cc2)cc1`?
A: CC50 [5]: > 40 µM (active); IC50 [6]: > 20 µM (inactive)

Q: With `CCCCOC(=O)c1[nH]c2c(c1C)C(=O)CC(c1cc(OC)c(OC)c(OC)c1)C2` (stereo unspecified) as the compound, how does the AC50 [7] read?
A: 3.74 µM (active)

Q: What about the AC50 [8] of the same compound?
A: 1.35 µM (active)

Q: What about the IC50 [9] of the same compound?
A: 7.91 µM (active)

Q: And the EC50 [10]?
A: 58.8 µM (active)

Q: What about the IC50 (Protein Wnt-3a) of the same compound?
A: 8.48 µM (active)

Q: And the EC50 [11]?
A: 79.5 µM (active)

Q: And the AC50 [12]?
A: 62 µM (active)

Q: Which Ki (fMet-Leu-Phe receptor) does the source give for `COCCN1Cc2cccc(C(=O)NCc3ccc4c(c3)OCO4)c2C1=O` here?
A: > 66.7 µM (inactive)

Q: What about the IC50 [13] of the same compound?
A: > 31 µM (not active)

Q: With `CC(NC1=NS(=O)(=O)c2ccccc21)C(=O)NCCCc1ccccc1` (stereo unspecified) as the compound, how does the AC50 [14] read?
A: 11.4 µM (active)

Q: Which IC50 [1] does the source give for `COCC(=O)Nc1ccc(Br)cc1C` here?
A: > 109 µM (inactive)

Q: And the IC50 [2]?
A: > 83.3 µM (inactive)

Q: With `Cc1cccc(S(=O)(=O)N(C)C[C@@H]2OCc3cn(nn3)CCCC(=O)N([C@@H](C)CO)C[C@H]2C)c1` as the compound, how does the AC50 [14] read?
A: 34.4 µM (active)

Q: For `C[C@H]1CN([C@@H](C)CO)C(=O)c2cccc(NC(=O)Nc3ccc(C(F)(F)F)cc3)c2O[C@H]1CN(C)C(=O)Nc1cccc2ccccc12`, which AC50 [14] is on record?
A: 8.85 µM (active)

Q: Which results are given for `Cc1ccc(/C=N/Nc2ccc(Cl)c(C(=O)O)c2)s1`?
A: IC50 [3]: > 67.6 µM (inactive); IC50 [15]: 80.5 µM (active); EC50 [4]: > 67.6 µM (inactive)

Q: For `COc1ccc2c3c([nH]c2c1)[C@H](CO)N(C(=O)Nc1ccc(F)cc1)CC31CCN(S(=O)(=O)c2cccc(F)c2)CC1`, which AC50 [16] is on record?
A: 22 µM (active)

Q: What about the AC50 [17] of the same compound?
A: 0.883 µM (active)

Q: What about the AC50 [18] of the same compound?
A: 0.103 µM (active)

Q: What about the AC50 [19] of the same compound?
A: 1.22 µM (active)

Q: And the AC50 [20]?
A: 0.751 µM (active)

Q: Which AC50 [17] does the source give for `C[C@H]1CN([C@@H](C)CO)C(=O)c2c(c3ccccc3n2C)-c2ccccc2CO[C@@H]1CN(C)Cc1cccc2c1OCCCO2` here?
A: 4.74 µM (active)

Q: And the AC50 [21]?
A: 29.8 µM (active)

Q: Which results are given for `COc1ccc(C#Cc2ccc3c(c2)[C@H]2[C@H](CCN2Cc2ccncc2)[C@@H](CO)N3)cc1`?
A: AC50 [16]: 62.5 µM (active); AC50 [17]: 2.38 µM (active); AC50 [18]: 1.67 µM (active); AC50 [19]: 1.95 µM (active); AC50 [20]: 1.16 µM (active)

Q: Which results are given for `OC[C@@H]1[C@H](c2ccc(C3=CCCC3)cc2)[C@H]2CN(CCC(F)(F)F)CCCCN12`?
A: AC50 [17]: 1.2 µM (active); AC50 [21]: 18.7 µM (active)

Q: What does the source list for `COc1ccccc1CN1C[C@@H]2N[C@H](C1)[C@@H]2c1ccc(-c2cccnc2)cc1`?
A: AC50 [16]: 29.6 µM (active); AC50 [17]: 2.1 µM (active); AC50 [18]: 1.78 µM (active); AC50 [19]: 3.2 µM (active); AC50 [21]: 28.5 µM (active); AC50 [20]: 1.35 µM (active)
